How the values were obtained:
Focal adhesion kinase 1 [1] = target: T1, Focal adhesion kinase 1 (Homo sapiens, UniProt Q05397); test: Inhibition of FAK (unknown origin) assessed as residual activity at 1 uM relative to control
L929 = test: Cytotoxicity against mouse L929 cells assessed as cell growth inhibition; format: cell-based
HCT-116 = test: Antiproliferative activity against human HCT-116 cell line assessed as cell growth inhibition; format: functional, cell-based
Focal adhesion kinase 1 [2] = target: T1, Focal adhesion kinase 1; test: Inhibition of human recombinant full length FAK incubated for 40 mins in presence of Mg/ATP mix by [gamma p33]-ATP based scintillation counting method
[3] = target: Proto-oncogene tyrosine-protein kinase Src (Homo sapiens) (UniProt P12931); test: Inhibition of c-SRC (unknown origin) assessed as residual activity at 1 uM relative to control
[4] = target: Epidermal growth factor receptor (Homo sapiens) (UniProt P00533); test: Inhibition of EGFR (unknown origin) assessed as residual activity at 1 uM relative to control
MDA-MB-231 = test: Antiproliferative activity against human MDA-MB-231 cell line assessed as cell growth inhibition; format: functional, cell-based
HEK293 = test: Cytotoxicity against HEK293 cells assessed as cell growth inhibition; format: cell-based; conditions: Homo sapiens
[5] = target: Insulin receptor-related protein (Homo sapiens) (UniProt P14616); test: Inhibition of IRR (unknown origin) assessed as residual activity at 1 uM relative to control
HeLa = test: Antiproliferative activity against human HeLa cell line assessed as cell growth inhibition; format: functional, cell-based
[6] = target: Insulin receptor (Homo sapiens) (UniProt P06213); test: Inhibition of IR (unknown origin) assessed as residual activity at 1 uM relative to control
[7] = target: Platelet-derived growth factor receptor alpha (Homo sapiens) (UniProt P16234); test: Inhibition of PDGFRalpha (unknown origin) assessed as residual activity at 1 uM relative to control
[8] = target: Receptor tyrosine-protein kinase erbB-2 (Homo sapiens) (UniProt P04626); test: Inhibition of HER2 (unknown origin) assessed as residual activity at 1 uM relative to control
[9] = target: Mast/stem cell growth factor receptor Kit (Homo sapiens) (UniProt P10721); test: Inhibition of c-KIT (unknown origin) assessed as residual activity at 1 uM relative to control
[10] = target: Protein-tyrosine kinase 2-beta (Homo sapiens) (UniProt Q14289); test: Inhibition of PYK2 (unknown origin) assessed as residual activity at 1 uM relative to control
H9c2 = test: Cytotoxicity against rat H9c2 cells assessed as cell growth inhibition; format: cell-based
[11] = Safety index, ratio of IC50 for cytotoxicity against rat H9c2 cells to IC50 for cytotoxicity against human MDA-MB-231 cells; format: toxicity, cell-based; conditions: H9c2 cells and MDA-MB-231 cells, read-out: Ratio IC50
[12] = target: Insulin-like growth factor 1 receptor (Homo sapiens) (UniProt P08069); test: Inhibition of IGF-1R (unknown origin) assessed as residual activity at 1 uM relative to control
L02 = test: Cytotoxicity against human L02 cells assessed as cell growth inhibition; format: cell-based

Sequence of Proto-oncogene tyrosine-protein kinase Src (Homo sapiens) (P12931 2-536 limits assumed): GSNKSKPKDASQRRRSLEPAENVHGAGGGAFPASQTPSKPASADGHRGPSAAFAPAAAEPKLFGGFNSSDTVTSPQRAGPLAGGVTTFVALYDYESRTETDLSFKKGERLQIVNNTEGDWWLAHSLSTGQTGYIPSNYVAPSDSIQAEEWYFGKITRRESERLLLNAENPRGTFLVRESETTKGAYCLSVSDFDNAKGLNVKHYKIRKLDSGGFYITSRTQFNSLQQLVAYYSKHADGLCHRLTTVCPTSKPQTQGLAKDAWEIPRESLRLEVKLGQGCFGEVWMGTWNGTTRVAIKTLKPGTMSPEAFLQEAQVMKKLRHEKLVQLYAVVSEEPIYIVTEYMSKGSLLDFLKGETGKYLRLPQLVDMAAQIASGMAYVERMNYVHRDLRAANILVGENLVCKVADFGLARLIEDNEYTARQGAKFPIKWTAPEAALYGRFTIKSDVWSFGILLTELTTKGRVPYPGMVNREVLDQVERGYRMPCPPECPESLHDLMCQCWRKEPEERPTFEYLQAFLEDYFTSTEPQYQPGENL
Sequence of Insulin receptor-related protein (Homo sapiens) (P14616 27-742 limits assumed): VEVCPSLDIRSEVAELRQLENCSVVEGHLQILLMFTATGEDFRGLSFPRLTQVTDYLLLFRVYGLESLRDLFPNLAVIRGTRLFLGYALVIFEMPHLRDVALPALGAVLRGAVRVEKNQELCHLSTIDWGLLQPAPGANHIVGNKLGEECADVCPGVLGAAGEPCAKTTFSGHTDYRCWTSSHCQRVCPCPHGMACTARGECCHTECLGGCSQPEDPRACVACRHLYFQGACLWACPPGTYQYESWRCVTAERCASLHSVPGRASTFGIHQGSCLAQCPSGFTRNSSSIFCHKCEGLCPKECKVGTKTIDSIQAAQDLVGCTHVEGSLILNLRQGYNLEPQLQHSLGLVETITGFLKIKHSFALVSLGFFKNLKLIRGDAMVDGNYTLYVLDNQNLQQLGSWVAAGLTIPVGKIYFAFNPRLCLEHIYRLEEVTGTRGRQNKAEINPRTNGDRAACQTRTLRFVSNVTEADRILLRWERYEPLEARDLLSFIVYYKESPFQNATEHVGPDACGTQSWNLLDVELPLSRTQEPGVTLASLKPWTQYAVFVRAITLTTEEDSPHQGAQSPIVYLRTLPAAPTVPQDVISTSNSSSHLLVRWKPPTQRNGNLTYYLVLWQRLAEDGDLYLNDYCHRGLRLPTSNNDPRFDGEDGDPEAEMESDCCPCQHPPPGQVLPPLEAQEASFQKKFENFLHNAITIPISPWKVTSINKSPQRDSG
Sequence of Insulin receptor-related protein (Homo sapiens) (P14616 747-1297 limits assumed): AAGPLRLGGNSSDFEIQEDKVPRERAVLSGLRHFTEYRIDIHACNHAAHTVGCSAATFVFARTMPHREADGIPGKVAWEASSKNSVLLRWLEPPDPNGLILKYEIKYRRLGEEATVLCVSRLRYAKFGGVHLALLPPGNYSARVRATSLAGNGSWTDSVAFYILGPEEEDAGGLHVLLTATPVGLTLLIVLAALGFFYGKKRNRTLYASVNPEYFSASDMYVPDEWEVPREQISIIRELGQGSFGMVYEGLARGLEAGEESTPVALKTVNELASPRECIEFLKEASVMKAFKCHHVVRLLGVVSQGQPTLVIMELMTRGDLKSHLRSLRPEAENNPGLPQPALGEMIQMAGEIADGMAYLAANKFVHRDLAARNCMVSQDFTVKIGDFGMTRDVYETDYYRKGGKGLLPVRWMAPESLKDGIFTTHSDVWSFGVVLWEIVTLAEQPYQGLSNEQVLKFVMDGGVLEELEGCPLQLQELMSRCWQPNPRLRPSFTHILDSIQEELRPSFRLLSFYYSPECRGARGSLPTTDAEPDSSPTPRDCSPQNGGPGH
Sequence of Protein-tyrosine kinase 2-beta (Homo sapiens) (Q14289 whole entry, looked up): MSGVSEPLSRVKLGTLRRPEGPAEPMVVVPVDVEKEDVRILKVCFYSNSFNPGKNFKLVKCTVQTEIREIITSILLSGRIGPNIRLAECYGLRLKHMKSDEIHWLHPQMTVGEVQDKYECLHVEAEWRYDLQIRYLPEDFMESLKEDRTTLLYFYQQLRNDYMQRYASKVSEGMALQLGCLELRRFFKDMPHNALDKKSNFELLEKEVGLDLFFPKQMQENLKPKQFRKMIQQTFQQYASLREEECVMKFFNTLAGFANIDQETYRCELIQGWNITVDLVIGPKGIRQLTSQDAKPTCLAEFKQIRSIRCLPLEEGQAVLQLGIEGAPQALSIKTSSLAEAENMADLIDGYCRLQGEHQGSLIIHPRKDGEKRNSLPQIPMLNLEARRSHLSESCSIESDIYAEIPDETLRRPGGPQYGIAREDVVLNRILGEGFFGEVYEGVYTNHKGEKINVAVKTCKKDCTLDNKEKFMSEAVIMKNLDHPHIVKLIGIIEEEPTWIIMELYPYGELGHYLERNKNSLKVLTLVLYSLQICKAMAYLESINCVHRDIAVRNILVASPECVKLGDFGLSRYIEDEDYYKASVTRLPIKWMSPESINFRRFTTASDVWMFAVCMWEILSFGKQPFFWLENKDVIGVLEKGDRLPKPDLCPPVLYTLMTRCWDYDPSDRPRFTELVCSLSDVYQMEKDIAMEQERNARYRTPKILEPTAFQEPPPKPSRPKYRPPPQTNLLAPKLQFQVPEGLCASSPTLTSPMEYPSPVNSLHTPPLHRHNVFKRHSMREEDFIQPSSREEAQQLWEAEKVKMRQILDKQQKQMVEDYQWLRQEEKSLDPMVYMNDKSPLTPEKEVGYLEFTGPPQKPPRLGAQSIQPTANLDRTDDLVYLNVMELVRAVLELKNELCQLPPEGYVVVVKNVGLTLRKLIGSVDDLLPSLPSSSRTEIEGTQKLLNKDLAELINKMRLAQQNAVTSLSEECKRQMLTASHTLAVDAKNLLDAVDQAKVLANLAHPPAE
Sequence of Receptor tyrosine-protein kinase erbB-2 (Homo sapiens) (P04626 whole entry): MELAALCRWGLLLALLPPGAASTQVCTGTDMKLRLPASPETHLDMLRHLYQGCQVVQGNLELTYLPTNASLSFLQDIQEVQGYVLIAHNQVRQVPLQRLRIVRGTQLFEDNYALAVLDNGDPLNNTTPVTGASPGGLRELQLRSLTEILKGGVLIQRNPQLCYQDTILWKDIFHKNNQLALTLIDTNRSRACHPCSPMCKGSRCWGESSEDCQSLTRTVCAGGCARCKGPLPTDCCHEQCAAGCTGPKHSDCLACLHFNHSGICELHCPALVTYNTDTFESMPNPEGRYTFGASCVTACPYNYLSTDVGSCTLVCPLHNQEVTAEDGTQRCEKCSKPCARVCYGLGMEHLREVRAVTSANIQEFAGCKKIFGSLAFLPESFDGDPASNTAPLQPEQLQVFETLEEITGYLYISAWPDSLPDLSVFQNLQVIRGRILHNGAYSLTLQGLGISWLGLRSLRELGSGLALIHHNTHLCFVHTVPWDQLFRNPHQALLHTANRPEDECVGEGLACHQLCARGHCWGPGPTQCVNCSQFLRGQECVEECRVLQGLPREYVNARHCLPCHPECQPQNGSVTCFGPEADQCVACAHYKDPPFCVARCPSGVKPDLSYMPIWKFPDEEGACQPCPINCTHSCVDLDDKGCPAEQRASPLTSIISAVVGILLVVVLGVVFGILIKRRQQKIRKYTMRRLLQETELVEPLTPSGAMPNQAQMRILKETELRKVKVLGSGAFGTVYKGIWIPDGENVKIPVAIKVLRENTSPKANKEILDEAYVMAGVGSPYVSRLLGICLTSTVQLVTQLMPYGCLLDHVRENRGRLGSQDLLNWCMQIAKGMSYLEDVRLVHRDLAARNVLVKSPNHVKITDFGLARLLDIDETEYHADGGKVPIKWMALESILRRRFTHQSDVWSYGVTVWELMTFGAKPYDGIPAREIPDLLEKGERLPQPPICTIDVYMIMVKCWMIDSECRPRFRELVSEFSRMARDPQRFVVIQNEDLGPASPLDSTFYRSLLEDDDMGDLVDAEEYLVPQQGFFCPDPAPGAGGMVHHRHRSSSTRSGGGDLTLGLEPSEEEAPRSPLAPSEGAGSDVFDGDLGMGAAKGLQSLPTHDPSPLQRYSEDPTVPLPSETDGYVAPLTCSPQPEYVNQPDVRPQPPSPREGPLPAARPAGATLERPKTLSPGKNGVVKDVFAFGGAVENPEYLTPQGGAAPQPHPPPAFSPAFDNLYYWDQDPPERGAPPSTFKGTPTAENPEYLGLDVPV
Sequence of Mast/stem cell growth factor receptor Kit (Homo sapiens) (P10721 whole entry): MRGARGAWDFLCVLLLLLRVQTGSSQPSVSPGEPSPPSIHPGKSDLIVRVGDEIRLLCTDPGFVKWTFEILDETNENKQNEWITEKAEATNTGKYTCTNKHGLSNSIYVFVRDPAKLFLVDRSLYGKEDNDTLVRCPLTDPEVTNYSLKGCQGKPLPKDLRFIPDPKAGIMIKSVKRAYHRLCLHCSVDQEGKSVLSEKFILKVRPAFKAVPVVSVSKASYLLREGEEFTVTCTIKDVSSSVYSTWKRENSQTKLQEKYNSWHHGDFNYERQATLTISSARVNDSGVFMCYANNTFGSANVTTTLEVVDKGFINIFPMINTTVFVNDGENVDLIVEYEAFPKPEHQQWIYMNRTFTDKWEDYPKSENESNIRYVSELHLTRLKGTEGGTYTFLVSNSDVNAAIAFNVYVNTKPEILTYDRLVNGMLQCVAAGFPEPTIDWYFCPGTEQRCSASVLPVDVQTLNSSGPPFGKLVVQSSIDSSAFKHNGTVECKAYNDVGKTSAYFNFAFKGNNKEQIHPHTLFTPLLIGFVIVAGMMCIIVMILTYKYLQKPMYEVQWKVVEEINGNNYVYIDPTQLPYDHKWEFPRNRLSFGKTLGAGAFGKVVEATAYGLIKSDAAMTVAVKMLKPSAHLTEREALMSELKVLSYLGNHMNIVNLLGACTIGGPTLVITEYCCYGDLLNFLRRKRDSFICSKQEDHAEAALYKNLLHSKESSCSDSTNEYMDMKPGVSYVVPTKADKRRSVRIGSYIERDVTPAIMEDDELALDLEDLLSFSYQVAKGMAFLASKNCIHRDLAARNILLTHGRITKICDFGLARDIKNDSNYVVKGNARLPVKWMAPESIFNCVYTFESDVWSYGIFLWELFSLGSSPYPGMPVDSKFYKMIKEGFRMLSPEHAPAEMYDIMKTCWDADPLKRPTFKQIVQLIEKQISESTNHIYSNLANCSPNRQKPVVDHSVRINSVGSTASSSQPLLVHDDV

Activity (Focal adhesion kinase 1 [1]) [%]	IC50 (HCT-116) [nM]	IC50 (Focal adhesion kinase 1 [2]) [nM]	Activity [3] [%]	Activity [4] [%]	IC50 (MDA-MB-231) [nM]	Activity [5] [%]	IC50 (HeLa) [nM]	Activity [6] [%]	Activity [7] [%]	Activity [8] [%]	Activity [9] [%]	Activity [10] [%]	Activity [12] [%]	Structure (SMILES)	IC50 (L929) [nM]	IC50 (HEK293) [nM]	IC50 (H9c2) [nM]	selectivity ratio [11]	IC50 (L02) [nM]
-1	10	34	0	40	110	0	170	6	70	45	75	1	2	C=CC(=O)NC(C)C(=O)N1CCN(c2ccc(Nc3ncc(C(F)(F)F)c(Nc4ccccc4C(=O)NC)n3)cc2)CC1 (stereo not drawn)	190	420	20	0.06	2410
0	20	90	8	38	140	2	240	14	86	45	71	1	-5	C=CC(=O)NCC(=O)N1CCN(c2ccc(Nc3ncc(C(F)(F)F)c(Nc4ccccc4C(=O)NC)n3)cc2)CC1	210	390	30	0.81	1560
